In BindingDB's records for doi:10.1016/s0960-894x(99)00095-5 (Warner-Lambert, 1999) one finds IC50 data, which are given here for 6 molecules.

Bounds are passed on as bounds.

In the experiment the target is Trypsin (Bos taurus). The experiment is described as follows: In vitro for inhibition of purified bovine trypsin.
Broadly, the IC50 is the concentration at which inhibition is half-maximal. A low value points to greater potency in that assay. Molecule `CN(c1nc2ccccc2c(=O)o1)S(=O)(=O)c1ccc(Cl)cc1` [4-Chloro-N-methyl-N-(4-oxo-4H-benzo[d][1,3]oxazin-2-yl)-benzenesulfonamide] yielded an IC50 of 1.3 µM.

`CN(c1nc2ccccc2c(=O)o1)S(=O)(=O)c1ccc(C(C)(C)C)cc1` [4-tert-Butyl-N-methyl-N-(4-oxo-4H-benzo[d][1,3]oxazin-2-yl)-benzenesulfonamide] came in with an IC50 of 5.83 µM.

Regarding `CN(c1nc2ccccc2c(=O)o1)S(=O)(=O)c1ccc([N+](=O)[O-])cc1` [N-Methyl-4-nitro-N-(4-oxo-4H-benzo[d][1,3]oxazin-2-yl)-benzenesulfonamide], the IC50 is > 100 µM.

The molecule `Cc1ccc(S(=O)(=O)N(C)c2nc3ccccc3c(=O)o2)cc1` [4,N-Dimethyl-N-(4-oxo-4H-benzo[d][1,3]oxazin-2-yl)-benzenesulfonamide] yielded an IC50 of 4.5 µM.

As for `COc1ccc(S(=O)(=O)N(C)c2nc3ccccc3c(=O)s2)cc1` [4-Methoxy-N-methyl-N-(4-oxo-4H-benzo[d][1,3]thiazin-2-yl)-benzenesulfonamide], the IC50 was > 200 µM.

`CN(c1nc2ccccc2c(=O)o1)S(=O)(=O)c1ccc(Cl)c(Cl)c1` [3,4-Dichloro-N-methyl-N-(4-oxo-4H-benzo[d][1,3]oxazin-2-yl)-benzenesulfonamide] yielded an IC50 of 8.3 µM.
